In the NIST ThermoML archive (doi:10.1021/acs.jced.8b00358):

How the values were obtained:
[1] = 83 kPa, Liquid; for speed of sound: Frequency=3 MHz, Single path-length method; for mass density: Vibrating tube method
[2] = molar heat capacity at constant pressure; details: 83 kPa, Liquid, DSC

CCCCC(=O)OCC(COC(=O)CCCC)(COC(=O)CCCC)COC(=O)CCCC [pentaerythritol tetrapentanoate]
Details	mass density [kg/m3]	molar heat capacity at constant pressure [J/K/mol]	speed of sound [m/s]
[1], 278.15 K	1030.29	–	1417.7
[1], 283.15 K	1026.21	–	1400.3
[1], 288.15 K	1022.14	–	1383.2
[1], 293.15 K	1018.08	–	1366.2
[1], 298.15 K	1014.04	–	1349.3
[1], 303.15 K	1010	–	1332.7
[1], 308.15 K	1005.97	–	1316.2
[1], 313.15 K	1001.94	–	1299.8
[1], 318.15 K	997.92	–	1283.6
[1], 323.15 K	993.9	–	1267.6
[1], 328.15 K	989.89	–	1251.8
[1], 333.15 K	985.88	–	1236.1
[1], 338.15 K	981.88	–	1220.5
[1], 343.15 K	977.88	–	1205.2
[2], 263.14 K	–	805.33	–
[2], 264.15 K	–	806.28	–
[2], 265.15 K	–	807.22	–
[2], 266.14 K	–	808.17	–
[2], 267.14 K	–	809.11	–
[2], 268.15 K	–	809.58	–
[2], 269.14 K	–	810.53	–
[2], 270.14 K	–	811.47	–
[2], 271.15 K	–	812.42	–
[2], 272.14 K	–	813.37	–
[2], 273.14 K	–	814.78	–
[2], 274.14 K	–	815.73	–
[2], 275.15 K	–	816.67	–
[2], 276.14 K	–	817.62	–
[2], 277.14 K	–	819.04	–
[2], 278.15 K	–	819.98	–
[2], 279.15 K	–	820.93	–
[2], 280.15 K	–	821.87	–
[2], 281.14 K	–	822.82	–
[2], 282.15 K	–	823.76	–
[2], 283.15 K	–	824.71	–
[2], 284.15 K	–	825.65	–
[2], 285.15 K	–	827.07	–
[2], 286.14 K	–	828.02	–
[2], 287.14 K	–	828.96	–
[2], 288.15 K	–	829.91	–
[2], 289.15 K	–	831.32	–
[2], 290.14 K	–	832.27	–
[2], 291.14 K	–	833.69	–
[2], 292.14 K	–	835.11	–
[2], 293.14 K	–	836.05	–
[2], 294.15 K	–	837.47	–
[2], 295.14 K	–	838.89	–
[2], 296.15 K	–	839.83	–
[2], 297.14 K	–	841.25	–
[2], 298.14 K	–	842.67	–
[2], 299.15 K	–	843.61	–
[2], 300.14 K	–	845.03	–
[2], 301.15 K	–	846.45	–
[2], 302.14 K	–	847.39	–
[2], 303.15 K	–	848.81	–
[2], 304.15 K	–	850.23	–
[2], 305.14 K	–	851.17	–
[2], 306.15 K	–	852.12	–
[2], 307.15 K	–	853.54	–
[2], 308.14 K	–	854.48	–
[2], 309.14 K	–	855.9	–
[2], 310.15 K	–	857.32	–
[2], 311.15 K	–	858.26	–
[2], 312.14 K	–	859.68	–
[2], 313.15 K	–	860.63	–
[2], 314.14 K	–	862.04	–
[2], 315.15 K	–	863.46	–
[2], 316.14 K	–	864.41	–
[2], 317.15 K	–	865.83	–
[2], 318.15 K	–	866.77	–
[2], 319.14 K	–	868.19	–
[2], 320.15 K	–	869.61	–
[2], 321.15 K	–	870.55	–
[2], 322.14 K	–	871.97	–
[2], 323.14 K	–	873.39	–
[2], 324.15 K	–	874.33	–
[2], 325.14 K	–	875.75	–
[2], 326.15 K	–	876.7	–
[2], 327.15 K	–	878.11	–
[2], 328.15 K	–	879.53	–
[2], 329.14 K	–	880.48	–
[2], 330.15 K	–	881.89	–
[2], 331.15 K	–	883.31	–
[2], 332.14 K	–	884.26	–
[2], 333.14 K	–	885.68	–
